Measurements as given in patent US9938262B2, “Benzamides” (Merck Patent GmbH, priority 2011, dated 2018).

target: T1, FSHR (Homo sapiens, UniProt P23945); test: EC50 of cyclic AMP production in CHO FSHR cells + EC20 FSH (Assay A); type: cell-based; conditions: 1 h; 5 μM; effect relative to maximum response of the FSH standard; Table 1
T1 construct: expressed in transfected cells; host or cells: CHO (Cho-FSHR-LUC-1-1-43)
In short: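 cAMP HTRF ratio (665/620 nm) read after 1 h, 37 °C exposure of CHO-FSHR cells to compound in presence of EC20 FSH ([…]) and IBMX 200 μM. Responses given relative to FSH standard maximum; EC50 derived.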

T1 sequence (P23945 18-695): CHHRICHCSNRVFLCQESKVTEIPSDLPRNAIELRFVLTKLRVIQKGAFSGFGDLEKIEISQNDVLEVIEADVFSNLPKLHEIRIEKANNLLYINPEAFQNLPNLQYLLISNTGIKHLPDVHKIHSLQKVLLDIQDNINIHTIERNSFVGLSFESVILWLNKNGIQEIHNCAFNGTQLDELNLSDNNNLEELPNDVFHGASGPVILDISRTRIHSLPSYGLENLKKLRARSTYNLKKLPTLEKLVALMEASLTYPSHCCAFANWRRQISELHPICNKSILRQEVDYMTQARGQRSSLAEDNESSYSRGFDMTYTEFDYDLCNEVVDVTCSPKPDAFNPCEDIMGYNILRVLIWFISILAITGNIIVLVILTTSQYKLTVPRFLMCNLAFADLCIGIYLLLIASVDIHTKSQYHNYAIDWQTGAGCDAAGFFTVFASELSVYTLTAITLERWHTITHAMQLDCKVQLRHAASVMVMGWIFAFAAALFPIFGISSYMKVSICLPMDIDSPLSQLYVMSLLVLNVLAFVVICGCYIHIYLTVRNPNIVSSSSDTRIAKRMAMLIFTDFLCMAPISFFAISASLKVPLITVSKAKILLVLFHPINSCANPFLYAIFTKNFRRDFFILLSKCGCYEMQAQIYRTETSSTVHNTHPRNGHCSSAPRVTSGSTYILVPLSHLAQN
T1 sequence (P01215 25-116 partner): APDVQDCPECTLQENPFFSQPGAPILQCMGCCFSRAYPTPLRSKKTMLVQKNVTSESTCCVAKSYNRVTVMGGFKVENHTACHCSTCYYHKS
T1 sequence (P01225 19-129 partner): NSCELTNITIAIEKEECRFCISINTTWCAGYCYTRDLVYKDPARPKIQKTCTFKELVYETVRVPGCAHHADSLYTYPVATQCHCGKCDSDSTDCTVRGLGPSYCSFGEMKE

activation at 5 µM | Compound
11% | CCc1onc(C)c1C(=O)Nc1cc(C(=O)NCCCN2CCCC2=O)ccc1N1CCN(c2ccccc2C)CC1 [Compound 81]
10% | Cc1ccccc1N1CCN(c2ccc(C(=O)NCCCN3CCCC3=O)cc2NC(=O)c2cnoc2C2CC2)CC1 [Compound 109]
40% | Cc1ccccc1N1CCN(c2ccc(C(=O)NCCCN3CCCC3=O)cc2NC(=O)c2ccc3ccn(C)c3c2)CC1 [Compound 114]
35% | Cc1ccccc1N1CCN(c2ccc(C(=O)NCCCN3CCCC3=O)cc2NC(=O)c2cncs2)CC1 [Compound 99]
24% | Cc1ccccc1N1CCN(c2ccc(C(=O)NCCCn3ccc4ccccc43)cc2NC(=O)c2ccco2)CC1 [Compound 149]
82% | COc1ccccc1CNC(=O)c1ccc(N2CCN(c3ccccc3C)CC2)c(NC(=O)c2ccco2)c1 [Compound 124, Furan-2-carboxylic acid [5-(2-methoxy-benzylcarbamoyl)-2-(4-o-tolyl-piperazin-1-yl)-phenyl]-amide]

same assay, conditions: CHO FSHR cells + EC20 FSH; Table 1; read-out: Assay A EC50 of cyclic AMP production

EC50 | Compound
100 to 1000 nM | Cc1ccccc1N1CCN(c2ccc(C(=O)NCc3cccc(-c4ccn(C)n4)c3)cc2NC(=O)c2ccco2)CC1 [Compound 240]
1000 to 10000 nM | Cc1ccccc1N1CCN(c2ccc(C(=O)NCCCN3CCCC3=O)cc2NC(=O)c2cccc(Cl)c2)CC1 [Compound 28]
100 to 1000 nM | Cc1ccccc1N1CCN(c2ccc(C(=O)NCCCN3CCCC3=O)cc2NC(=O)c2cccs2)CC1 [Compound 20]
1000 to 10000 nM | Cc1ccccc1N1CCN(c2ccc(C(=O)NCCCN3CCCC3=O)cc2NC(=O)c2occc2Br)CC1 [Compound 7]
1000 to 10000 nM | Cc1ccccc1N1CCN(c2ccc(C(=O)NCCCN3CCCC3=O)cc2NC(=O)c2csnn2)CC1 [Compound 110]
1000 to 10000 nM | Cc1ccc(C(=O)Nc2cc(C(=O)NCCCn3ccnc3)ccc2N2CCN(c3ccccc3C)CC2)o1 [Compound 210, 5-Methyl-furan-2-carboxylic acid [5-(3-imidazol-1-yl-propylcarbamoyl)-2-(4-o-tolyl-piperazin-1-yl)-phenyl]-amide]
100 to 1000 nM | Cc1ccccc1N1CCN(c2ccc(C(=O)NCCCN3CCCC3=O)cc2NC(=O)c2ccsc2)CC1 [Compound 69]
1000 to 10000 nM | CCc1ocnc1C(=O)Nc1cc(C(=O)NCCCN2CCCC2=O)ccc1N1CCN(c2ccccc2C)CC1 [Compound 77]
100 to 1000 nM | Cc1cnc(C(=O)Nc2cc(C(=O)NCCCN3CCCC3=O)ccc2N2CCN(c3ccccc3C)CC2)s1 [Compound 205]
1000 to 10000 nM | Cc1ccccc1N1CCN(c2ccc(C(=O)NCCCN3CCCC3=O)cc2NC(=O)c2ccno2)CC1 [Compound 98]
100 to 1000 nM | Cc1ccccc1N1CCN(c2ccc(C(=O)NCC(=O)NC3CCCC3)cc2NC(=O)c2ccco2)CC1 [Compound 151]
100 to 1000 nM | Cc1ccccc1N1CCN(c2ccc(C(=O)NCCCc3ccncc3)cc2NC(=O)c2ccco2)CC1 [Compound 153]
1000 to 10000 nM | Cc1ccccc1N1CCN(c2ccc(C(=O)NCCCN3CCCC3=O)cc2NC(=O)c2ncccc2F)CC1 [Compound 160]
100 to 1000 nM | Cc1ccccc1N1CCN(c2ccc(C(=O)NCCCN3C(=O)CN(C)C3=O)cc2NC(=O)c2ccco2)CC1 [Compound 156]

same assay, conditions: CHO FSHR cells + EC20 FSH; Table 2; read-out: Assay A EC50 of cyclic AMP production

EC50 | Compound
1000 to 10000 nM | CCn1nc(C2CC2)cc1C(=O)Nc1cc(C(=O)NCCCN2CCCC2=O)ccc1N1CCN(c2ccccc2C)CC1 [Compound 324]
1000 to 10000 nM | Cc1ccccc1N1CCN(c2ccc(C(=O)NC(C)(C)c3cccc(CN(C)C)c3)cc2NC(=O)c2coc(C3CC3)n2)CC1 [Compound 486]
100 to 1000 nM | Cc1ccccc1N1CCN(c2ccc(C(=O)NCCCNC(=O)NC(C)(C)C)cc2NC(=O)c2ccco2)CC1 [Compound 493]
1000 to 10000 nM | Cc1ccc(C(=O)Nc2cc(C(=O)NCCc3cn(C)cn3)ccc2N2CCN(c3ncccc3C)CC2)o1 [Compound 464]
100 to 1000 nM | Cc1ccccc1N1CCN(c2ccc(C(=O)NCCCNC(=O)NC3CCCC3)cc2NC(=O)c2ccco2)CC1 [Compound 494]
> 10000 nM | CN(c1ccccc1)C1CCN(c2ccc(C(=O)NCCCN3CCCC3=O)cc2NC(=O)c2coc(C3CC3)n2)CC1 [Compound 407]
< 100 nM | Cc1ccccc1N1CCN(c2ccc(C(=O)NC3CCCC(O)C3)cc2NC(=O)c2coc(C3CC3)n2)CC1 (stereo not drawn) [Compound 552]
1000 to 10000 nM | Cc1ccccc1N1CCN(c2ccc(C(=O)NCCc3ccc(CNC(=O)OC(C)(C)C)cc3)cc2NC(=O)c2coc(C3CC3)n2)CC1 [Compound 489]
< 100 nM | CCC(=O)NCCCNC(=O)c1ccc(N2CCN(c3ccccc3C)CC2)c(NC(=O)c2coc(C3CC3)n2)c1 [Compound 445]
100 to 1000 nM | Cc1ccccc1N1CCN(c2ccc(C(=O)NCCCN3CCCC3=O)cc2NC(=O)c2ncc[nH]2)CC1 [Compound 440]
1000 to 10000 nM | Cc1ccccc1N1CCN(c2ccc(C(=O)NCCCc3ccccc3Cl)cc2NC(=O)c2ccco2)CC1 [Compound 373]
100 to 1000 nM | Cc1cc(F)ccc1N1CCN(c2ccc(C(=O)NCCCN3CCCC3=O)cc2NC(=O)c2coc(C3CC3)n2)CC1 [Compound 312]
100 to 1000 nM | CCOc1cc(CCCNC(=O)c2ccc(N3CCN(c4ccccc4C)CC3)c(NC(=O)c3ccc(C)o3)c2)ccc1OC [Compound 581]
100 to 1000 nM | Cc1ccccc1N1CCN(c2ccc(C(=O)NCCN(C)C3CCS(=O)(=O)C3)cc2NC(=O)c2ccco2)CC1 (stereo not drawn) [Compound 504]
100 to 1000 nM | Cc1ccccc1N1CCN(c2ccc(C(=O)NCc3cccc(C(F)(F)F)c3)cc2NC(=O)c2ccco2)CC1 [Compound 527]
> 10000 nM | NC1(c2ccccc2)CCN(c2ccc(C(=O)NCCCN3CCCC3=O)cc2NC(=O)c2coc(C3CC3)n2)CC1 [Compound 401]
< 100 nM | Cc1ccccc1N1CCN(c2ccc(C(=O)NCc3cccc(CN(C)C)n3)cc2NC(=O)c2ccco2)CC1 [Compound 474]
100 to 1000 nM | Cc1ccccc1N1CCN(c2ccc(C(=O)NC(C)CCN3CCCC3=O)cc2NC(=O)c2coc(C3CC3)n2)CC1 (stereo not drawn) [Compound 364]
< 100 nM | Cc1ccccc1N1CCN(c2ccc(C(=O)NCCCN3CCN(C)C3=O)cc2NC(=O)c2coc(C3CC3)n2)CC1 [Compound 331]
100 to 1000 nM | Cc1ccccc1N1CCN(c2ccc(C(=O)NCCCN3CCCC3=O)cc2NC(=O)c2ccc(C3CC3)o2)CC1 [Compound 449]
100 to 1000 nM | Cc1ccccc1N1CCN(c2ccc(C(=O)NC[C@@H]3OC(C)(C)O[C@H]3CN)cc2NC(=O)c2coc(C3CC3)n2)CC1 [Compound 549]
< 100 nM | Cc1ccccc1N1CCN(c2ccc(C(=O)NCc3cccc(S(N)(=O)=O)c3)cc2NC(=O)c2ccco2)CC1 [Compound 266]
100 to 1000 nM | CCC(CCNC(=O)c1ccc(N2CCN(c3ccccc3C)CC2)c(NC(=O)c2ccco2)c1)N1CCCC1=O (stereo not drawn) [Compound 281]
1000 to 10000 nM | Cc1ccc2[nH]cc(CCNC(=O)c3ccc(N4CCN(c5ccccc5C)CC4)c(NC(=O)c4coc(C5CC5)n4)c3)c2c1 [Compound 569]
100 to 1000 nM | Cc1ccccc1N1CCN(c2ccc(C(=O)NC[C@H](O)CO)cc2NC(=O)c2coc(C3CC3)n2)CC1 [Compound 565]
100 to 1000 nM | Cc1ccccc1N1CCN(c2ccc(C(=O)NCCCN3C(=O)CCC3(C)C)cc2NC(=O)c2coc(C3CC3)n2)CC1 [Compound 354]
100 to 1000 nM | Cc1ccccc1N1CCN(c2ccc(C(=O)NCCCN3C(=O)CSC3=O)cc2NC(=O)c2coc(C3CC3)n2)CC1 [Compound 289]
1000 to 10000 nM | N#Cc1nccnc1N1CCN(c2ccc(C(=O)NCCCN3CCCC3=O)cc2NC(=O)c2coc(C3CC3)n2)CC1 [Compound 595]
